Where a SMILES comes first, the peptide text is derived from it. Where no end group is shown, it is not given here. [ ]: non-standard residue; d: D form. The star is where a group is joined. Hexanoyl = CCCCCC(=O)*; Aib = CC(C)(N)C(=O)O

The target of series [1] is T1, human VPAC2 (Homo sapiens, UniProt P41587).
T1 construct: expressed in transfected cells
T1 sequence (P41587 24-438): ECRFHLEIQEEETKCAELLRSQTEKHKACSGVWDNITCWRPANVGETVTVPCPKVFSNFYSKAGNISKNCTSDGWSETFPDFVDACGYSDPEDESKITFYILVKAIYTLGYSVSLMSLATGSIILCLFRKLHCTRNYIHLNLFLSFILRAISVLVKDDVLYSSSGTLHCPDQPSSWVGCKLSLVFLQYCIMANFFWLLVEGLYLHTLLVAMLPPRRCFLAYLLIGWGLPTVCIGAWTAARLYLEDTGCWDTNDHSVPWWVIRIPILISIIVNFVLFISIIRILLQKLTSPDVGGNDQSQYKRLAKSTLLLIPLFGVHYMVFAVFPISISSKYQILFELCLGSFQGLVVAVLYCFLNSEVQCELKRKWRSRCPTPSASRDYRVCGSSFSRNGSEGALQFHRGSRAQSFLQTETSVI
The series is described as follows: Alpha screen cAMP in vitro potency, human VPAC2 receptor. It counts as cell-based. Conditions: cAMP generation; single result from two analyses performed in a single run; read-out: Human VPAC2 Receptor: Alpha Screen EC50. In a few lines:
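Dissociated cells, 50,000 per point in stimulation buffer, were incubated with stimuli and AlphaScreen acceptor beads for 60 min.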

The target in series [2] is T1, human VPAC2. Description: Filter binding assay, membranes of stable VPAC2 cell line, 125I-labeled VIP tracer (Table 2). The conditions noted are these: read-out: Human VPAC2 Receptor Binding. In a few lines: (§1)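 Radioligand displacement was measured with 2.5 μg membrane protein per well and roughly 40000 cpm of iodinated tracer. After a 1-hour incubation, bound and free label were separated on BSA-blocked glass-fibre filters and quantified by scintillation.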

Series [3] can be described thus: Rat serum stability studies (remaining active peptide by DiscoveRx cAMP on CHO-VPAC2 cells). Format: in vitro ADME. In a few lines:
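EC50 from a DiscoveRx cAMP read-out on CHO-VPAC2 cells indexes how much peptide stays active after 18 h in rat serum at 37° C without aprotinin, against an aprotinin-protected 4° C aliquot.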

For the next series, the target named is T2, human VPAC1 (Homo sapiens, UniProt P32241).
T2 sequence (P32241 31-457): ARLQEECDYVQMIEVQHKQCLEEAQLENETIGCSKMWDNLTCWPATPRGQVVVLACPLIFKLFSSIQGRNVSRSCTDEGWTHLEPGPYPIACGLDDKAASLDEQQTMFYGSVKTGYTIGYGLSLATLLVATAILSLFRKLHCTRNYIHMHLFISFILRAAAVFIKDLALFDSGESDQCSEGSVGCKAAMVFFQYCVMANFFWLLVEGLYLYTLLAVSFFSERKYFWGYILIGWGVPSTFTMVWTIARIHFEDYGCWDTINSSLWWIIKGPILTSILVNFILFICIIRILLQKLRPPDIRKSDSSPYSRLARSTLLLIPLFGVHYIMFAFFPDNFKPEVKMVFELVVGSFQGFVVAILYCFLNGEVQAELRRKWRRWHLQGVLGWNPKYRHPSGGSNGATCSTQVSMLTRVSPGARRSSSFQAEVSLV
The series is described as follows: Filter binding assay, membranes of cells transiently transfected with human VPAC1, 125I-labeled VIP tracer (Table 2). Also noted: expressed in transfected cells. Conditions: read-out: Human VPAC1 Receptor Binding. The method, boiled down: as §1

Another series concerns the target T3, human PAC1 (Homo sapiens, UniProt P41586).
T3 sequence (P41586 21-468): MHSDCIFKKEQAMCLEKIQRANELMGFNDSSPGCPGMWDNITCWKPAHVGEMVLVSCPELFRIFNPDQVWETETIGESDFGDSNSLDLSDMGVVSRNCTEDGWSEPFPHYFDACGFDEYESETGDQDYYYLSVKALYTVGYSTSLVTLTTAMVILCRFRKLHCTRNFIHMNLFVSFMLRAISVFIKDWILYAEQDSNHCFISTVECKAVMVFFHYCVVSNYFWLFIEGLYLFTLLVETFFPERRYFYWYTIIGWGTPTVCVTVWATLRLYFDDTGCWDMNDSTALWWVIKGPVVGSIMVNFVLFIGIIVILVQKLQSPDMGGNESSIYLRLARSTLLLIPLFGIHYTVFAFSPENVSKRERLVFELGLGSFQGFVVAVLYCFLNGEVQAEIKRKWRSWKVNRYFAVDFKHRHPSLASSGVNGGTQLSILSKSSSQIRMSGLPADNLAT
Description: Filter binding assay, membranes of cells transiently transfected with human PAC1, 125I-labeled PACAP-27 tracer (Table 2). Also noted: expressed in transfected cells. The conditions noted are these: read-out: Human PAC1 Receptor Binding. In a few lines:
as §1

A word on the EC50: it is the concentration needed to bring the measured effect to its halfway point. Take “Hexanoyl-HSDAVFTDNYTRLR[Aib]QVAAAKYLQSIKNKRYGGPSSGAPPPS [Agonist P263]”: on human VPAC2 [1], the EC50 came out at 0.07 nM. The IC50 on human VPAC2 [2] is 0.38 nM; on human VPAC1 it was 2680 nM; on human PAC1, 636 nM. Besides, the “Rat Serum Stability (estimated purity in % after 18 hours)” value in series [3] is listed as 11.72%.
Take “Hexanoyl-HSDAVFTEEYTRLQKQVAAKQYLQSIKNKRYGGPSSGAPPPS [Agonist P165]”: the EC50 on human VPAC2 [1] is 0.94 nM. Moreover, the IC50 on human VPAC2 [2] was found to be 18.4 nM; on human VPAC1 it was 486 nM; on human PAC1, 2860 nM. In addition, in series [3], the “Rat Serum Stability (estimated purity in % after 18 hours)” value is 7.28%.
The corresponding values for `CCCCCC(=O)N[C@@H](Cc1c[nH]cn1)C(=O)N[C@@H](CO)C(=O)N[C@@H](CC(=O)O)C(=O)N[C@@H](C)C(=O)N[C@H](C(=O)N[C@@H](Cc1ccccc1)C(=O)N[C@H](C(=O)N[C@@H](CC(=O)O)C(=O)N[C@@H](CC(N)=O)C(=O)N[C@@H](Cc1ccc(O)cc1)C(=O)N[C@H](C(=O)N[C@@H](CCCNC(=N)N)C(=O)N[C@@H](CC(C)C)C(=O)N[C@@H](CCCNC(=N)N)C(=O)NC(C)(C)C(=O)N[C@@H](CCC(N)=O)C(=O)N[C@H](C(=O)N[C@@H](C)C(=O)N[C@@H](C)C(=O)N[C@@H](CCCCN)C(=O)NC(C)(C)C(=O)N[C@@H](Cc1ccc(O)cc1)C(=O)N[C@@H](CC(C)C)C(=O)N[C@@H](CCC(N)=O)C(=O)N[C@@H](CO)C(=O)N[C@H](C(=O)N[C@@H](CCCCN)C(=O)N[C@@H](CCC(N)=O)C(=O)N[C@@H](CCCCN)C(=O)NCC(=O)NCC(=O)N1CCC[C@H]1C(=O)N[C@@H](CO)C(=O)N[C@@H](CO)C(=O)NCC(=O)N[C@@H](C)C(=O)N1CCC[C@H]1C(=O)N1CCC[C@H]1C(=O)N1CCC[C@H]1C(=O)N[C@@H](CO)C(=O)O)[C@@H](C)CC)C(C)C)[C@@H](C)O)[C@@H](C)O)C(C)C` [Agonist P295] (Hexanoyl-HSDAVFTDNYTRLR[Aib]QVAAK[Aib]YLQSIKQKGGPSSGAPPPS-OH; C-terminus assumed) are 0.39 nM, 0.75 nM, more than 3000 nM, more than 25000 nM and 22.22%.
Take “Hexanoyl-HSDAVFTDNYTRLRKQVAAKQYLQSIKNKRYGGPSSGAPPPS [Agonist P183]”: at human VPAC2 [1], the EC50 stood at 0.14 nM. In addition, the IC50 came to 0.26 nM at human VPAC2 [2], 424 nM on human VPAC1 and 506 nM on human PAC1. For the same molecule, in series [3], the “Rat Serum Stability (estimated purity in % after 18 hours)” value is given as 0.18%.
As for “Hexanoyl-HSDAVFTYNYTRLRKQVAAKKYLQSIKNKRYGGPSSGAPPPS [Agonist P163]”, the IC50 at human VPAC2 [2] worked out at 2 nM; at human VPAC1 it was 35.7 nM; at human PAC1 it was 238 nM. The “Rat Serum Stability (estimated purity in % after 18 hours)” value in series [3] is recorded as less than 1.25%.
The matching figures for “Hexanoyl-HSDAVFTDNYTRLRKQVAAKKILQSIKNKRYGGPSSGAPPPS [Agonist P133]”: 5.3 nM, 470 nM, 1940 nM and less than 2.00%.
Consider “Hexanoyl-HSDAVFTDNYTRL[Aib]KQVAALKYLQSIKNKRYGGPSSGAPPPS [Agonist P259]”, for which the IC50 was 13.2 nM at human VPAC2 [2], 3460 nM at human VPAC1 and more than 3000 nM at human PAC1. In series [3], the “Rat Serum Stability (estimated purity in % after 18 hours)” value is 17.65%.
Take “Hexanoyl-HSDAVFTDNYTRLRKQVAAKKYLQSIKNKRYGGPSSGAPPPC [Agonist P120]”: the EC50 on human VPAC2 [1] was 0.06 nM. Moreover, the IC50 on human VPAC2 [2] is 0.44 nM; on human PAC1, 577 nM. The “Rat Serum Stability (estimated purity in % after 18 hours)” value in series [3] is listed as 5%.
As to “Hexanoyl-HSDAVFTDNYTRL[Aib]KQVAAAKYLQSIKNKRYGGPSSGAPPPS [Agonist P260]”, the IC50 on human VPAC2 [2] is 4.79 nM; on human VPAC1 it was 3320 nM; at human PAC1, more than 3000 nM. For the same molecule, the “Rat Serum Stability (estimated purity in % after 18 hours)” value in series [3] is recorded as 28.57%.
Take “Hexanoyl-HSDAVFTDNYTRL[Aib]KQVAA[Aib]KYLQSIKNKRYGGPSSGAPPPS [Agonist P242]”: the IC50 on human VPAC2 [2] was 6.78 nM; at human VPAC1 it was more than 3000 nM; at human PAC1, more than 25000 nM. Also, in series [3], the “Rat Serum Stability (Estimated purity in % after 72 hours)” value was 3.8%. Besides, the “Rat Serum Stability (estimated purity in % after 18 hours)” value in series [3] was 40.28%.
As for `CCCCCC(=O)N[C@@H](Cc1c[nH]cn1)C(=O)N[C@@H](CO)C(=O)N[C@@H](CC(=O)O)C(=O)N[C@@H](C)C(=O)N[C@H](C(=O)N[C@@H](Cc1ccccc1)C(=O)N[C@H](C(=O)N[C@@H](CC(=O)O)C(=O)N[C@@H](CC(N)=O)C(=O)N[C@@H](Cc1ccc(O)cc1)C(=O)N[C@H](C(=O)N[C@@H](CCCNC(=N)N)C(=O)N[C@@H](CC(C)C)C(=O)NC(C)(C)C(=O)N[C@@H](CCCCN)C(=O)N[C@@H](CCC(N)=O)C(=O)N[C@H](C(=O)N[C@@H](C)C(=O)N[C@@H](C)C(=O)NC(C)(C)C(=O)N[C@@H](CCCCN)C(=O)N[C@@H](Cc1ccc(O)cc1)C(=O)N[C@@H](CC(C)C)C(=O)N[C@@H](CCC(N)=O)C(=O)N[C@@H](CO)C(=O)N[C@H](C(=O)N[C@@H](CCCCN)C(=O)N[C@@H](CCC(N)=O)C(=O)NCC(=O)NCC(=O)N1CCC[C@H]1C(=O)N[C@@H](CO)C(=O)N[C@@H](CO)C(=O)NCC(=O)N[C@@H](C)C(=O)N1CCC[C@H]1C(=O)N1CCC[C@H]1C(=O)N1CCC[C@H]1C(=O)N[C@@H](CO)C(=O)O)[C@@H](C)CC)C(C)C)[C@@H](C)O)[C@@H](C)O)C(C)C` [Agonist P296] (Hexanoyl-HSDAVFTDNYTRL[Aib]KQVAA[Aib]KYLQSIKQGGPSSGAPPPS-OH; C-terminus assumed), the IC50 was more than 100 nM at human VPAC2 [2], more than 3000 nM at human VPAC1 and more than 25000 nM on human PAC1. Moreover, the “Rat Serum Stability (estimated purity in % after 18 hours)” value in series [3] is 42.26%.
As to `CCCCCC(=O)N[C@@H](Cc1c[nH]cn1)C(=O)N[C@@H](CO)C(=O)N[C@@H](CC(=O)O)C(=O)N[C@@H](C)C(=O)N[C@H](C(=O)N[C@@H](Cc1ccccc1)C(=O)N[C@H](C(=O)N[C@@H](CC(=O)O)C(=O)N[C@@H](CC(N)=O)C(=O)N[C@@H](Cc1ccc(O)cc1)C(=O)N[C@H](C(=O)N[C@@H](CCCNC(=N)N)C(=O)N[C@@H](CC(C)C)C(=O)NC(C)(C)C(=O)N[C@@H](CCCCN)C(=O)N[C@@H](CCC(N)=O)C(=O)N[C@H](C(=O)N[C@@H](C)C(=O)N[C@@H](C)C(=O)NC(C)(C)C(=O)N[C@@H](CCCCN)C(=O)N[C@@H](Cc1ccc(O)cc1)C(=O)N[C@@H](CC(C)C)C(=O)N[C@@H](CCC(N)=O)C(=O)N[C@@H](CO)C(=O)N[C@H](C(=O)N[C@@H](CCCCN)C(=O)N[C@@H](CCC(N)=O)C(=O)N[C@@H](CCCCN)C(=O)NCC(=O)NCC(=O)N1CCC[C@H]1C(=O)N[C@@H](CO)C(=O)N[C@@H](CO)C(=O)NCC(=O)N[C@@H](C)C(=O)N1CCC[C@H]1C(=O)N1CCC[C@H]1C(=O)N1CCC[C@H]1C(=O)N[C@@H](CO)C(=O)O)[C@@H](C)CC)C(C)C)[C@@H](C)O)[C@@H](C)O)C(C)C` [Agonist P293] (Hexanoyl-HSDAVFTDNYTRL[Aib]KQVAA[Aib]KYLQSIKQKGGPSSGAPPPS-OH; C-terminus assumed), the figures for the IC50 at human VPAC2 [2], on human VPAC1 and at human PAC1 were 16.7 nM, more than 3000 nM and more than 25000 nM, respectively. Further, the “Rat Serum Stability (estimated purity in % after 18 hours)” value in series [3] is on record as 32.70%.
In the case of “Hexanoyl-HSDAVFTDNYTRL[Aib]KQVAAVKYLQSIKNKRYGGPSSGAPPPS [Agonist P269]”, the IC50 was 10.1 nM at human VPAC2 [2], more than 3000 nM at human VPAC1 and more than 25000 nM on human PAC1. For the same molecule, the “Rat Serum Stability (estimated purity in % after 18 hours)” value in series [3] is recorded as 23.85%.

These data come from patent US20080026996A1, “Selective Vpac2 Receptor Reptide Agonists” (ELI LILLY AND COMPANY, priority 2004, published 2008).
